Measurements taken from ChEMBL document CHEMBL1125278, “Novel cerebroprotective agents with central nervous system stimulating activity. 2. Synthesis and pharmacology of the 1-(acylamino)-7-hydroxyindan derivatives” (1991).

Legend:
Type in all cases: functional
Mus musculus [1] = test: Antihypoxic effect by the survival time (SVT) in mice at a dose of 30 mg/kg administered intraperitoneally.; details: route intraperitoneal
Mus musculus [2] = test: Antihypoxic effect tested by the ratio of survival time (SVT) of test mice to that of control group, dosed intraperitoneally at 30 mg/kg; details: route intraperitoneal
Mus musculus [3] = test: Time of recovery of righting reflux (RRT) in seconds was measured after oral administration of 30 mg/kg in mice for the promotional effect on recovery from coma.
Mus musculus [4] = test: Antihypoxic effect tested by the ratio of survival time (SVT) of test mice to that of control group, dosed orally 30 mg/kg; details: route oral
Mus musculus [5] = test: Spontaneous movement (SMT) in seconds, was measured after oral administration of 30 mg/kg in mice to test for promoting effects on recovery from coma.
Mus musculus [6] = test: Antihypoxic effect by the ratio of survival time (SVT) of test mice to that of control group at a dose of 30 mg/kg administered subcutaneously.; details: route subcutaneous

With `CCCCCCCCCCC(=O)NC1CCc2c(C)cc(C)c(O)c21` (configuration not stated) the SVT (Mus musculus [1]) was 94.5%.

`CCC(C)c1cc(C)c2c(c1O)C(NC(=O)CN1CCN(c3cccc(Cl)c3)CC1)CC2` (configuration not stated) was tested, and the SVT (Mus musculus [2]) was 224.8%, the RRT (Mus musculus [3]) was 90.6 s and the SVT (Mus musculus [4]) was 144.5%. It also gave an SMT (Mus musculus [5]) of 81.9 s.

`COc1cccc(N2CCN(CC(=O)NC3c4c(O)c(C)cc(C)c4CC3c3ccc(Cl)cc3)CC2)c1` (configuration not stated) gave an RRT (Mus musculus [3]) of 80.1 s, an SVT (Mus musculus [4]) of 91.7% and an SMT (Mus musculus [5]) of 94.3 s.

Work on `Cc1cc(C)c2c(c1O)C(NC(=O)CN1CCN(c3ccc([N+](=O)[O-])cc3)CC1)C(C)(C)C2` (configuration not stated) yielded an RRT (Mus musculus [3]) of 99.5 s, an SVT (Mus musculus [4]) of 107.9% and an SMT (Mus musculus [5]) of 90.6 s.

Work on `Cc1ccc(C(=O)NC2CCc3c(C)cc(C)c(O)c32)cc1` (configuration not stated) yielded an SVT (Mus musculus [2]) of 68.8%.

With `Cc1cc(C)c2c(c1O)C(NC(=O)CN1CCN(c3ccc(Cl)c(Cl)c3)CC1)C(C)(C)C2` (configuration not stated) the RRT (Mus musculus [3]) was 93.2 s, the SVT (Mus musculus [4]) was 100.1% and the SMT (Mus musculus [5]) was 108.2 s.

`COc1cccc(N2CCN(C(=O)CNC3c4c(O)c(C)cc(C)c4CC3(C)C)CC2)c1` (configuration not stated) gave an SVT (Mus musculus [2]) of 97.7%, an RRT (Mus musculus [3]) of 84 s and an SMT (Mus musculus [5]) of 111 s.

In the case of `Cc1cc(C)c2c(c1O)C(NC(=O)CN1CCOCC1)C(C)(C)C2` (configuration not stated), the SVT (Mus musculus [2]) is reported as 104.3%, the RRT (Mus musculus [3]) is reported as 106.9 s and the SMT (Mus musculus [5]) is reported as 92.2 s.

`Cc1cc(C)c2c(c1O)C(NC(=O)CN1CCN(c3cccc(Cl)c3)CC1)C(C)(C)C2` (configuration not stated) was tested, and the SVT (Mus musculus [2]) was 456.6%, the RRT (Mus musculus [3]) was 88.4 s and the SVT (Mus musculus [4]) was 147.9%. The SMT (Mus musculus [5]) was 128.1 s.

`Cc1cc(C)c2c(c1O)C(NC(=O)CN1CCCC1=O)C(C)(C)C2` (configuration not stated) gave an SVT (Mus musculus [2]) of 135.3%, an RRT (Mus musculus [3]) of 89.2 s and an SMT (Mus musculus [5]) of 88.8 s.

For `Cc1cc(C)c2c(c1O)C(N)C(c1ccccc1)C2` (configuration not stated), the SVT (Mus musculus [2]) was 185.7%, the RRT (Mus musculus [3]) was 34.3 s and the SVT (Mus musculus [4]) was 114.1%. For the same molecule, the SMT (Mus musculus [5]) was 28.9 s.

In the case of `COc1cccc(N2CCN(CC(=O)NC3c4c(c(C)cc(C)c4OC)CC3(C)C)CC2)c1` (configuration not stated), the RRT (Mus musculus [3]) is reported as 72.6 s, the SVT (Mus musculus [4]) is reported as 93.4% and the SMT (Mus musculus [5]) is reported as 61.8 s.

`CCC(C)c1cc(C)c2c(c1O)C(N)CC2` (configuration not stated) gave an RRT (Mus musculus [3]) of 44.2 s, an SVT (Mus musculus [4]) of 166.5% and an SMT (Mus musculus [5]) of 48.9 s. The SVT (Mus musculus [6]) was 276.5%.

Molecule `Cc1ccc(Cl)cc1N1CCN(CC(=O)NC2c3c(O)c(C)cc(C)c3CC2(C)C)CC1` (configuration not stated) has an RRT (Mus musculus [3]) of 91.7 s, an SVT (Mus musculus [4]) of 103.2% and an SMT (Mus musculus [5]) of 74 s.

With `COc1cccc(N2CCN(CCC(=O)NC3c4c(O)c(C)cc(C)c4CC3(C)C)CC2)c1` (configuration not stated) the RRT (Mus musculus [3]) was 98 s, the SVT (Mus musculus [4]) was 91.8% and the SMT (Mus musculus [5]) was 92.4 s.

With `Cc1cc(C)c2c(c1O)C(NC(=O)CCl)CC2` (configuration not stated) the SVT (Mus musculus [1]) was 116.4%.

`Cc1cc(C)c2c(c1O)C(NC(=O)CN1CCCCC1)C(C)(C)C2` (configuration not stated) gave an SVT (Mus musculus [2]) of 112.7%, an RRT (Mus musculus [3]) of 100.7 s and an SMT (Mus musculus [5]) of 84.2 s.

`Cc1cc(C)c2c(c1O)C(NC(=O)CN1CCN(c3cccc(Cl)c3)CC1)C(c1ccc(Cl)cc1)C2` (configuration not stated) was tested, and the RRT (Mus musculus [3]) was 98 s, the SVT (Mus musculus [4]) was 81.3% and the SMT (Mus musculus [5]) was 99.4 s.

`COc1ccc(N2CCN(CC(=O)NC3c4c(O)c(C)cc(C)c4CC3(C)C)CC2)cc1OC` (configuration not stated) was tested, and the RRT (Mus musculus [3]) was 59.5 s, the SVT (Mus musculus [4]) was 85.7% and the SMT (Mus musculus [5]) was 81 s.

`COc1cccc(N2CCN(CC(=O)NC3c4c(O)c(C)cc(C)c4CC3c3ccccc3)CC2)c1` (configuration not stated) was tested, and the RRT (Mus musculus [3]) was 82 s, the SVT (Mus musculus [4]) was 78.3% and the SMT (Mus musculus [5]) was 80.6 s.

In the case of `Cc1cc(C)c2c(c1O)C(NC(=O)CN1CCN(c3ccc(F)cc3)CC1)C(C)(C)C2` (configuration not stated), the RRT (Mus musculus [3]) is reported as 110.5 s, the SVT (Mus musculus [4]) is reported as 96.2% and the SMT (Mus musculus [5]) is reported as 121.4 s.

Work on `Cc1ccc(N2CCN(CC(=O)NC3c4c(O)c(C)cc(C)c4CC3(C)C)CC2)cc1Cl` (configuration not stated) yielded an RRT (Mus musculus [3]) of 103.9 s, an SVT (Mus musculus [4]) of 90.5% and an SMT (Mus musculus [5]) of 117.7 s.

`Cc1cc(C)c2c(c1O)C(NCCN1CCN(c3cccc(Cl)c3)CC1)C(C)(C)C2` (configuration not stated) gave an SVT (Mus musculus [2]) of 141.3%, an RRT (Mus musculus [3]) of 64.8 s and an SMT (Mus musculus [5]) of 59.9 s.

`Cc1cc(C)c(N2CCN(CC(=O)NC3c4c(O)c(C)cc(C)c4CC3(C)C)CC2)c(C)c1` (configuration not stated) was tested, and the RRT (Mus musculus [3]) was 87.6 s, the SVT (Mus musculus [4]) was 100.3% and the SMT (Mus musculus [5]) was 84 s.

For `Cc1cc(C)c2c(c1O)C(NC(=O)CN1CCN(c3cc(Cl)ccc3Cl)CC1)C(C)(C)C2` (configuration not stated), the RRT (Mus musculus [3]) was 73.6 s, the SVT (Mus musculus [4]) was 100% and the SMT (Mus musculus [5]) was 69.4 s.

`COc1ccccc1N1CCN(CC(=O)NC2c3c(O)c(C)cc(C)c3CC2(C)C)CC1` (configuration not stated) gave an RRT (Mus musculus [3]) of 97.2 s, an SVT (Mus musculus [4]) of 94.4% and an SMT (Mus musculus [5]) of 117.3 s.

`COc1cccc(N2CCN(CC(=O)NC3CCc4c(C)cc(C)c(O)c43)CC2)c1` (configuration not stated) gave an RRT (Mus musculus [3]) of 64.2 s, an SVT (Mus musculus [4]) of 77.2% and an SMT (Mus musculus [5]) of 54.7 s.

With `Cc1cc(C)c2c(c1O)C(NC(=O)CN1CCN(c3ccccc3F)CC1)C(C)(C)C2` (configuration not stated) the RRT (Mus musculus [3]) was 89 s, the SVT (Mus musculus [4]) was 99.9% and the SMT (Mus musculus [5]) was 123.8 s.
